Results published in patent US20070190129A1, “Sustained release dosage forms of ziprasidone” (Pfizer Inc., priority 2003, published 2007).
≈ marks a conversion by molar mass, not a printed value. Counter-ions that a name gives are not always drawn. Like-named read-outs stand apart in the source and are kept apart here. One block for each compound: values may come before it.

How the values were obtained:
[1] = In vitro membrane permeation test; format: physicochemical; settings: for Concentration (permeate solution): feed MFD solution, 100 μgA/mL if all dissolved, 37° C.
Experimental: The ziprasidone coated crystals were evaluated in vitro using a membrane permeation test. An Accurel® PP 1E microporous polypropylene membrane was obtained from Membrana GmbH (Wuppertal, Germany). The membrane was washed in isopropyl alcohol and rinsed in methanol in a sonicating bath for 1 minute at ambient temperature, and then allowed to air dry at ambient temperature. The feed side of the membrane was then plasma-treated to render it hydrophilic by placing a sample of the membrane in a plasma chamber. The atmosphere of the plasma chamber was saturated with water vapor at a pressure of 550 mtorr. A plasma was then generated using radio frequency (RF) power inductively coupled into the chamber via annular electrodes at a power setting of 50 watts for 45 seconds. The contact angle of a drop of water placed on the surface of the plasma-treated membrane was about 40°. The contact angle of a drop of water placed on the permeate side of the same membrane was greater than about 110°.
A permeate reservoir was formed by gluing a sample of the plasma-treated membrane to a glass tube having an inside diameter of about 1 inch (2.54 cm) using an epoxy-based glue (LOCTITE® E-30CL HYSOL®) from Henkel Loctite Corp, Rocky Hill, Conn.). The feed-side of the membrane was oriented so that it was on the outside of the permeate reservoir, while the permeate-side of the membrane was oriented so that it was on the inside of the reservoir. The effective membrane area of the membrane on the permeate reservoir was about 4.9 cm^2. The permeate reservoir was placed into a glass feed reservoir. The feed reservoir was equipped with a magnetic stir bar and the reservoir was placed on a stir plate and the stir rate was set to 100 rpm during the test. The apparatus was placed into a chamber maintained at 37° C. for the duration of the test. Further details of the test apparatus and protocols are presented in co-pending U.S. patent application Ser. No. 60/557,897, entitled “Method and Device for Evaluation of Pharmaceutical Compositions,” filed Mar. 30, 2004 (attorney Docket No. PC25968), incorporated herein by reference.
To form the feed solution, a 1.39 mg sample of the coated crystals was weighed into the feed reservoir. To this was added 5 mL of MFD solution previously described, consisting of PBS solution containing 7.3 mM sodium taurocholic acid and 1.4 mM of 1-palmitoyl-2-oleyl-sn-glycero-3-phospocholine (0.5% NaTC/POPC). The concentration of ziprasidone in the feed solution, would have been 100 μgA/mL, if all of the ziprasidone had dissolved. The feed solution was mixed using a vortex mixer for 1 minute. Before the membrane contacted the feed solution, 5 mL of 60 wt% decenol in decane was placed into the permeate reservoir. Time zero in the test was the membrane was placed in contact with the feed solution. A […] aliquot of the permeate solution was collected at the times indicated. Samples were then diluted in […] IPA and analyzed using HPLC.
As a control, the membrane test was repeated using a 0.5-mg sample of crystalline ziprasidone alone, so that the concentration of drug would have been 100 μg/mL, if all of the drug had dissolved.
The maximum flux of drug across the membrane (in units of mgA/cm^2-min) was determined by performing a least-squares fit to the data in Table 3 from 0 to 60 minutes to obtain the slope, multiplying the slope by the permeate volume (5 mL), and dividing by the membrane area (4.9 cm^2).

[2] = physchem
From the text: To achieve efficacious blood levels over long periods of time, the sustained release dosage form should release ziprasidone to the gastrointestinal tract in a manner that allows ziprasidone to be absorbed for a sustained length of time. However, formulating ziprasidone into a sustained release dosage form presents a number of problems. […] Such low solubility at intestinal pH inhibits absorption of ziprasidone in the intestines.
In one embodiment, the solubility-improved form of ziprasidone is a high solubility salt form. It is known that some low-solubility drugs may be formulated in highly soluble salt forms that provide temporary improvements in the concentration of the drug in a use environment relative to another salt form of the drug.

[3] = Microcentrifuge dissolution test in MFD solution; format: physicochemical; set-up: AUC: concentration or dose not given beside the values; settings: for AUC / Dissolved Ziprasidone Concentration: MFD solution pH 6.5, 37° C.; for Dissolved Ziprasidone Concentration: 200 μgA/mL if all dissolved
Experimental: The tests were run in duplicate. The tubes were placed in a 37° C. temperature-controlled chamber, and 1.8 mL MFD solution at pH 6.5 and 290 mOsm/kg was added to each respective tube. The samples were quickly mixed using a vortex mixer for about 60 seconds. The samples were centrifuged at 13,000 G at 37° C. for 1 minute prior to collecting a sample. The resulting supernatant solution was then sampled and diluted 1:5 (by volume) with methanol. Samples were analyzed by high-performance liquid chromatography (HPLC) at a UV absorbance of 315 nm using a Zorbax RxC8 Reliance column and a mobile phase consisting of 55% (50 mM potassium dihydrogen phosphate, pH 6.5)/45% acetonitrile. Drug concentration was calculated by comparing UV absorbance of samples to the absorbance of drug standards. The contents of each tube were mixed on the vortex mixer and allowed to stand undisturbed at 37° C. until the next sample was taken. Samples were collected at 4, 10, 20, 40, 90, and 1200 minutes following administration to the MFD solution.
A similar test was performed with the crystalline ziprasidone free base as a control, and a sufficient amount of material was added so that the concentration of compound would have been 200 μgA/mL, if all of the ziprasidone had dissolved.
The concentration of ziprasidone obtained in these tests were used to determine the maximum dissolved concentration of ziprasidone (“MDC90”) and the area under the concentration-versus time (“AUC90”) during the initial ninety minutes.

[4] = with food versus without; cited from earlier work
[5] = molecular target: D2 receptor (Homo sapiens, UniProt P14416); settings: cited from earlier work
Sequence of D2 receptor (P14416 whole entry): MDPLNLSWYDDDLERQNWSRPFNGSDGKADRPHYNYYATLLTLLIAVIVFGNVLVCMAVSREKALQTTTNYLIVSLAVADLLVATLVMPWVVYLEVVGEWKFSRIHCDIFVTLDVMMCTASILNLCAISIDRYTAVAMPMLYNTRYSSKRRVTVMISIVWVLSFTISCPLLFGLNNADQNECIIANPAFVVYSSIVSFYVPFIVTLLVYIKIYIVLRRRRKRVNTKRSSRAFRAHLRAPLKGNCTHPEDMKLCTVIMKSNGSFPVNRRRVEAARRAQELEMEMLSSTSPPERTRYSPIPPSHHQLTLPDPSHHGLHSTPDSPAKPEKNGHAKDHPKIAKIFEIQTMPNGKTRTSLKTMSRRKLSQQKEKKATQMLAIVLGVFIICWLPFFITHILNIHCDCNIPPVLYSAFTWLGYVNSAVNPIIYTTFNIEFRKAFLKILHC

[6] = at the pH of the saturated solution
[7] = initial ninety minutes, MFD solution pH 6.5

Compound: O=C(O)c1ccccc1O [Salicylate]
Aqueous Solubility [2]: 58 µg/mL
pH of Saturated Solution [2]: 5.5

Compound: O=C1Cc2cc(CCN3CCN(c4nsc5ccccc45)CC3)c(Cl)cc2N1 [Ziprasidone hydrochloride monohydrate, ziprasidone hydrochloride monohydrate]
AUC90 (area under the concentration-versus time) ([3]; initial ninety minutes, MFD solution pH 6.5, hydrochloride monohydrate): 1,700 min*μgA/mL
MDC90 (maximum dissolved concentration of ziprasidone) ([3]; pH 6.5): 22 μgA/mL

Compound: O=C1Cc2cc(CCN3CCN(c4nsc5ccccc45)CC3)c(Cl)cc2N1 [ziprasidone, 5-[2-[4-(1,2-benzisothiazol-3-yl)-1-piperazinyl]ethyl]-6-chloro-1,2-dihydro-2H-indol-2-one]
AUC90 (area under the concentration-versus time) ([3]; initial ninety minutes, MFD solution pH 6.5, listed as Ziprasidone free base): 120 min*μgA/mL
MDC90 (maximum dissolved concentration of ziprasidone) ([3]; pH 6.5): 2 μgA/mL
absorption in the presence of food [4]: increased up to two-fold
D2 occupancy ([5]; blood ziprasidone concentration 16 ng/ml): approximately 50%
D2 occupancy ([5]; blood ziprasidone concentration 30 ng/ml): approximately 65%
D2 occupancy ([5]; blood ziprasidone concentration 50 ng/ml): approximately 75%
pH of Saturated Solution [2]: 9.8
solubility ([2]; pH 6.5, aqueous buffer): ~0.2 µg/mL (≈ 0.484 µM)
solubility ([2]; pH 9.8, water): 0.2 µg/mL (≈ 0.484 µM)

Compound: Fumarate
Aqueous Solubility [2]: 2000 µg/mL
pH of Saturated Solution [2]: 2.5

Compound: Maleate
Aqueous Solubility [2]: 118 µg/mL
pH of Saturated Solution [2]: 4.3

Compound: ziprasidone mesylate trihydrate
AUC ([3]; 0 min): 0 min-μgA/mL
Dissolved Ziprasidone Concentration ([3]; 0 min): 0 μgA/mL
AUC ([3]; 4 min): 110 min-μgA/mL
Dissolved Ziprasidone Concentration ([3]; 4 min): 55 μgA/mL
AUC ([3]; 10 min): 380 min-μgA/mL
Dissolved Ziprasidone Concentration ([3]; 10 min): 33 μgA/mL
AUC ([3]; 20 min): 640 min-μgA/mL
Dissolved Ziprasidone Concentration ([3]; 20 min): 20 μgA/mL
AUC ([3]; 40 min): 970 min-μgA/mL
Dissolved Ziprasidone Concentration ([3]; 40 min): 13 μgA/mL
AUC ([3]; 90 min): 1,600 min-μgA/mL
Dissolved Ziprasidone Concentration ([3]; 90 min): 11 μgA/mL
AUC ([3]; 1200 min): 11,200 min-μgA/mL
Dissolved Ziprasidone Concentration ([3]; 1200 min): 6 μgA/mL
AUC90 relative to that provided by the free base ([3]; MFD solution pH 6.5): 13 fold
MDC90 relative to that provided by the free base ([3]; MFD solution pH 6.5): 27 fold
AUC90 (area under the concentration-versus time) [3, 7]: 1,600 min*μgA/mL
MDC90 (maximum dissolved concentration of ziprasidone) [3, 7]: 55 μgA/mL

Next, values leading:

Concentration (permeate solution) ([1]; 0 min): 0.0 μgA/mL
Concentration (permeate solution) ([1]; 20 min): 5.2 μgA/mL
Concentration (permeate solution) ([1]; 40 min): 8.1 μgA/mL
Concentration (permeate solution) ([1]; 60 min): 10.0 μgA/mL
Concentration (permeate solution) ([1]; 90 min): 11.4 μgA/mL
Concentration (permeate solution) ([1]; 120 min): 12.9 μgA/mL
Concentration (permeate solution) ([1]; 180 min): 18.1 μgA/mL
Concentration (permeate solution) ([1]; 245 min): 20.9 μgA/mL
Concentration (permeate solution) ([1]; 360 min): 22.6 μgA/mL
Maximum flux of Ziprasidone ([1]; least-squares fit 0 to 60 minutes, permeate volume 5 mL, membrane area 4.9 cm^2): 0.16 µgA/cm²·min
Compound: Cl.O=C1Cc2cc(CCN3CCN(c4nsc5ccccc45)CC3)c(Cl)cc2N1 [Crystalline Ziprasidone HCl]

pH of Saturated Solution [2]: 2.3
Aqueous Solubility [2, 6]: 37 µg/mL
Compound: Phosphate

pH of Saturated Solution [2]: 6.0
Aqueous Solubility [2, 6]: 64 µg/mL
Compound: Tosylate
